For three molecules, IC50, MIC and remaining activity results are on record in article PMC8436411 (ACS Medicinal Chemistry Letters, 2021).

Where “and” joins values, the source holds several entries; their conditions need not be identical. Equal values may be shown once. Read-outs that look alike come from different tables or passages of the source.

One assay concerns the target T1, S. aureus DNA gyrase (Staphylococcus aureus, UniProt P20831).
T1 construct: purchased Inspiralis (Norwich, UK)
Kind of assay: DNA gyrase supercoiling inhibition assay (S. aureus). Format: biochemical. The note with it: mean of two independent measurements ± SD. Here is the method:
We synthesized and biologically evaluated ten new compounds. We determined their inhibitory activity, expressed as IC50 values, on both Gram-positive S. aureus and Gram-negative E. coli bacterial enzymes (DNA gyrase and topo IV), respectively. The in vitro antibacterial activity, expressed as minimum inhibitory concentration (MIC), was determined against broad spectrum of bacteria, including Gram-positive (Staphylococcus aureus, methicillin-resistant Staphylococcus aureus, Streptococcus agalactiae, and Enterococcus faecalis) and Gram-negative strains (Escherichia coli, Salmonella alachua, Pseudomonas aeruginosa, and Klebsiella pneumoniae), enriched with various MRSA strains resistant to various antibiotics as well as E. coli strains with increased membrane permeability and lack of efflux pump, as well. Furthermore, the selectivity of compounds for bacterial enzyme compared to the orthologous human topoisomerase IIα was also considered. The in vitro safety profile was determined by cytotoxicity assessment on human umbilical vein endothelial cell lines (HUVEC) and HepG2 liver cancer cell lines.
Determination of DNA gyrase and topoisomerase IV inhibitory activities
To determine the IC50 values of the compounds, a Gyrase Supercoiling High Throughput Plate assay kit and a TopoIV Relaxation High Throughput Plate assay kit, commercially available from Inspiralis (Norwich, UK), were used for S. aureus and E. coli. The assays were performed on black streptavidin-coated 96-well microtiter plates (Thermo Scientific Pierce, Norwich, UK) and the wells were first […]
BSA and 0.05% [v/v] Tween-20). Biotinylated oligonucleotide diluted with the wash buffer was then immobilized in each well and the excess was removed with the wash buffer. 1.5 U of the enzyme S. aureus or E. coli DNA gyrase (topoIV) was incubated together with 0.75 μg of relaxed (supercoiled) pNO1 plasmid as substrate in the presence of 3 μl inhibitor solution in 10% DMSO and 0.008% Tween-20 at 37°C for 30 min in a final reaction volume of 30 μl in the assay buffer (S. aureus DNA gyrase: 40 mM HEPES.KOH (pH 7.6), 10 mM magnesium acetate, 10 mM DTT, 2 mM ATP, 500 mM potassium glutamate and 0.05 mg/ml albumin; E. coli DNA gyrase: 35 mM Tris.HCl (pH 7.5), 24 […]
mg/ml albumin; S. aureus topo IV: 50 mM Tris.HCl (7.5), 5 mM MgCl 2, 5 mM DTT, 1.5 mM ATP, 350 mM potassium glutamate and 0.05 mg/ml albumin; E. coli topo IV: 40 mM HEPES.KOH (pH 7.6), 100 mM potassium glutamate, 10 mM magnesium acetate, 10 mM DTT, 1 mM ATP and 50 μg/ml albumin). The reaction was stopped by adding the TF buffer (50 mM NaOAc (pH 4.7), 50 mM NaCl and 50 mM MgCl2) to allow triplex formation (biotin oligonucleotide plasmid) for another 30 min. Finally, the unbound plasmid was washed off using the TF buffer and the Promega Diamond dye was added to T10 buffer (10 mM Tris-HCl (pH 8.0), 1 mM EDTA) solution. After 15 min the solution […]
Two inhibitor concentrations of 100 and 1 μM were used for pre-screening. The IC 50 values […]
(IC50) was calculated by nonlinear regression-based fitting of the inhibition curves using the log [inhibitor] versus response-variable slope (four parameters) – symmetrical equation, in GraphPad Prism 6.0 software (GraphPad Software, CA, USA). The IC50 value represents the average of two independent measurements.
The minimum inhibitory concentrations (MICs) were determined using the broth micro-dilution method in 96-well plate format according to the Clinical and Laboratory Standards Institute

In assay [1] the test system is Enterococcus faecalis DRK 057 (ATCC 29212). The assay can be described thus: microbe, parasite or virus in culture. Here is the method: (§1) The in vitro antibacterial activity, expressed as minimum inhibitory concentration (MIC), was determined against broad spectrum of bacteria, including Gram-positive (Staphylococcus aureus, methicillin-resistant Staphylococcus aureus, Streptococcus agalactiae, and Enterococcus faecalis) and Gram-negative strains (Escherichia coli, Salmonella alachua, Pseudomonas aeruginosa, and Klebsiella pneumoniae), enriched with various MRSA strains resistant to various antibiotics as well as E. coli strains with increased membrane permeability and lack of efflux pump, as well. […]
(§2) The minimum inhibitory concentrations (MICs) were determined using the broth micro-dilution method in 96-well plate format according to the Clinical and Laboratory Standards Institute […]
(§3) guidelines8 and European Committee on Antimicrobial Susceptibility Testing recommendations9. The bacterial suspension of the specific bacterial strain equivalent to the 0.5 McFarland turbidity standard was diluted with cation-adapted Mueller Hinton broth with TES (Thermo Fisher Scientific) to obtain a […]
(§4) The compounds dissolved in DMSO and inoculum were mixed together and incubated for 20 h at 35 °C.

In the next assay the test system is Klebsiella pneumoniae. The assay can be described thus: microbe, parasite or virus in culture. Here is the method: as §1, §2, §3, §4
The subject of another assay is E. coli D22. Kind of assay: microbe, parasite or virus in culture. The note with it: Escherichia coli. The procedure: as §1, §2, §3, §4
In the next assay the test system is MRSA (QA-11.7). The assay can be described thus: microbe, parasite or virus in culture. Conditions: Staphylococcus aureus, read-out: MIC MRSA (QA-11.7). Here is the method: as §1, §2, §3, §4
A further assay relates to E. coli (ATCC 25922). The assay can be described thus: microbe, parasite or virus in culture. The note with it: Escherichia coli, ATCC25922, read-out: MIC E. coli (ATCC 25922). The procedure: as §1, §2, §3, §4
A further assay relates to MRSA (QA-12.1). Kind of assay: microbe, parasite or virus in culture. Conditions: Staphylococcus aureus, read-out: MIC MRSA (QA-12.1). Here is the method:
as §1, §2, §3, §4

The test system of another assay is S. aureus (ATCC 29213). Kind of assay: microbe, parasite or virus in culture. The note with it: Staphylococcus aureus, ATCC29213, read-out: MIC S. aureus (ATCC 29213). The procedure: as §1, §2, §3, §4
Assay [2] deals with E. coli N43 (CGSC no. 5583). Kind of assay: microbe, parasite or virus in culture. The note with it: Escherichia coli. Here is the method:
as §1, §2, §3, §4

The subject of assay [3] is Streptococcus agalactiae RDK 047 (QA-990/02). Kind of assay: microbe, parasite or virus in culture. Here is the method:
as §1, §2, §3, §4

For assay [4], the system named is Pseudomonas aeruginosa RDK 184 (DSM 939). The assay can be described thus: microbe, parasite or virus in culture. Here is the method:
as §1, §2, §3, §4

The test system of assay [5] is Salmonella alachua RDK 030c (QA-1482/04). The assay can be described thus: microbe, parasite or virus in culture. The procedure: as §1, §2, §3, §4
A further assay concerns the target Human topoisomerase IIα (Homo sapiens, UniProt P11388). Kind of assay: Human topoisomerase IIα residual activity. Format: biochemical. The note with it: residual activity at 10 μM compound; mean ± SD, two independent experiments; read-out: Human topoisomerase IIα (%RA).
The mark [6] stands for this setting: ATCC29212, read-out: MIC E. faecalis DRK 057 (ATCC 29212).
Setting [7] is: ATCC29212, read-out: MIC Enterococcus faecalis DRK 057 (ATCC 29212).
The mark [8] stands for this setting: read-out: MIC Klebsiella pneumoniae.
[9] abbreviates: read-out: MIC E. coli N43 (CGSC no. 5583).
Where [10] appears, read: read-out: MIC E. coli N43 (CGSC# 5583).
The mark [11] stands for this setting: read-out: MIC S. agalactiae RDK 047 (QA-990/02).
[12] abbreviates: read-out: MIC Streptococcus agalactiae RDK 047 (QA-990/02).
[13] abbreviates: DSM939, read-out: MIC P. aeruginosa RDK 184 (DSM 939).
[14] abbreviates: DSM939, read-out: MIC Pseudomonas aeruginosa RDK 184 (DSM 939).
Where [15] appears, read: read-out: MIC S. alachua RDK 030c (QA-1482/04).
[16] abbreviates: read-out: MIC Salmonella alachua RDK 030c (QA-1482/04).

Broadly, the IC50 is the concentration at which inhibition is half-maximal.

T1 sequence (P20831 whole entry, looked up): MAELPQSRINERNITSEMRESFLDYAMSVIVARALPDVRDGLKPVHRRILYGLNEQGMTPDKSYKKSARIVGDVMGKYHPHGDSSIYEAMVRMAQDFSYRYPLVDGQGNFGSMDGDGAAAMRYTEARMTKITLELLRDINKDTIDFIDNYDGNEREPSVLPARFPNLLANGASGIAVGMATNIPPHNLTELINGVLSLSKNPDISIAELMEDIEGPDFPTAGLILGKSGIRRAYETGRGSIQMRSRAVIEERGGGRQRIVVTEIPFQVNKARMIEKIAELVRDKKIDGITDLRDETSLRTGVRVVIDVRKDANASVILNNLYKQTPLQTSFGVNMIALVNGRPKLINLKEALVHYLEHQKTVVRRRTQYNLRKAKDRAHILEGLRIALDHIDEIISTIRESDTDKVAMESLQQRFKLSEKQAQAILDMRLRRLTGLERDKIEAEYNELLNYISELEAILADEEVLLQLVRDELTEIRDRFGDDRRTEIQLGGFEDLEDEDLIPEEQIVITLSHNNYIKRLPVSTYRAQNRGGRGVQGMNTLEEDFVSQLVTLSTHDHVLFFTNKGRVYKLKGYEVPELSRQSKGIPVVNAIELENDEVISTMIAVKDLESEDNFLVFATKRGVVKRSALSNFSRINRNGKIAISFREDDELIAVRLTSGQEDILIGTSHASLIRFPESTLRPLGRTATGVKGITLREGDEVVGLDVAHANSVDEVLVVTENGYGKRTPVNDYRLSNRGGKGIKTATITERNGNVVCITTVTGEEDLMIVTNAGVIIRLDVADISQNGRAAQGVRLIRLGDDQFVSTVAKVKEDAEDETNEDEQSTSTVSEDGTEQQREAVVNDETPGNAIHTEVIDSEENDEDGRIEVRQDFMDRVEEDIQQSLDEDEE
Chain of Human topoisomerase IIα (P11388 whole entry): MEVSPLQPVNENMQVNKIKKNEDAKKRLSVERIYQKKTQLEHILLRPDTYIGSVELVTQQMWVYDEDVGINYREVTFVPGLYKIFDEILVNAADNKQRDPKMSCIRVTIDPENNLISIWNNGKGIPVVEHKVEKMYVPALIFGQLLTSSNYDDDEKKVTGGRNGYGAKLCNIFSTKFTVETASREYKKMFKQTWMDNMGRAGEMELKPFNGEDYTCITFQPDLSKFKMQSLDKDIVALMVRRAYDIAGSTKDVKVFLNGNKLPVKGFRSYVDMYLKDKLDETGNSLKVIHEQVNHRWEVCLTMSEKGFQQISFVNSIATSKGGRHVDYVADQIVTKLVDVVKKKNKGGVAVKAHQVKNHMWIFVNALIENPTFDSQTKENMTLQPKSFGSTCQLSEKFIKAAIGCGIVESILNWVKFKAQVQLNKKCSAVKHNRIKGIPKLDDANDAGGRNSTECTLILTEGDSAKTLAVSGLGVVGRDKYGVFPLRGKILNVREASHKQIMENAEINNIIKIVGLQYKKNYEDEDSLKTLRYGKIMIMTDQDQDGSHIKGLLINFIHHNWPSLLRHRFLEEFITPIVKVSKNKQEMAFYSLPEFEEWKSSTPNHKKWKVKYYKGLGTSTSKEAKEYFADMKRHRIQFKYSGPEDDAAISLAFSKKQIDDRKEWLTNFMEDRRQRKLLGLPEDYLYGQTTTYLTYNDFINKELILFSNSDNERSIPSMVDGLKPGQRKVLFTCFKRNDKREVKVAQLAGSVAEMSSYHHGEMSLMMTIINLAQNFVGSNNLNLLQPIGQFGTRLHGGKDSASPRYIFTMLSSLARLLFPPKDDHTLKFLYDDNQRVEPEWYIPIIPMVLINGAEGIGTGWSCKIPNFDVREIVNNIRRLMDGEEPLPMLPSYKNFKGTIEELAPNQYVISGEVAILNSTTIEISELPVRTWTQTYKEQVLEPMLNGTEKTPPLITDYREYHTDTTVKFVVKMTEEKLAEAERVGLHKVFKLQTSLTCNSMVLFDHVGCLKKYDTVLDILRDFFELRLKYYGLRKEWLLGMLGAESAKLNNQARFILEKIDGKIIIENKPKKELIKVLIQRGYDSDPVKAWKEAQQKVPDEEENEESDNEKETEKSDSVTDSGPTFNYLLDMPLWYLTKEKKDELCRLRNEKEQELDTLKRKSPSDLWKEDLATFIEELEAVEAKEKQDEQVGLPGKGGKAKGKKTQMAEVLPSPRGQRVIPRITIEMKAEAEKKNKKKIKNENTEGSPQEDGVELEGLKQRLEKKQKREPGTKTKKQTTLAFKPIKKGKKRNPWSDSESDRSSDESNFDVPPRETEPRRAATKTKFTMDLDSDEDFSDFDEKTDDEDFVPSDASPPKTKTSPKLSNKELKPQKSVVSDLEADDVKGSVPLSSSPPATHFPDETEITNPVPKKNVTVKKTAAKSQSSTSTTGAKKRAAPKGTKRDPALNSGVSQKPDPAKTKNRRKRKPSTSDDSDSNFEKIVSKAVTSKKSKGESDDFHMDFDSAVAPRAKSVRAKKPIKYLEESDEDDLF

Molecule `COc1ccc2nccc(CCN3CCC(NCc4ccc(Cl)c(F)c4)CC3)c2n1` [Compound 4] registered an IC50 on S. aureus DNA gyrase of 6 ± 1 nM. For the same molecule, the MIC in assay [1] (setting [6]) was determined as 4.66 µM; in assay [1] (setting [7]) it was 2 µg/mL; with Klebsiella pneumoniae (read-out: MIC K. pneumoniae) it was 74.6 µM; in the assay with Klebsiella pneumoniae (setting [8]), 32 µg/mL; with E. coli D22 (D22, read-out: MIC E. coli D2), 0.583 µM; in the assay with E. coli D22 (D22, read-out: MIC E. coli D22), 0.25 µg/mL. The MIC in the assay on MRSA (QA-11.7) is 0.072 µM and 0.031 µg/mL; in the assay with E. coli (ATCC 25922) it was 4.66 µM and 2 µg/mL; in the assay on MRSA (QA-12.1) it was 0.072 µM and 0.031 µg/mL; in the assay with S. aureus (ATCC 29213) it was 0.072 µM and 0.031 µg/mL; in assay [2] (setting [9]), 0.062 µg/mL; in assay [2] (setting [10]) it was 0.145 µM. Also, the MIC is 2.33 µM in [3] (setting [11]); 1 µg/mL in assay [3] (setting [12]); 149 µM in assay [4] (setting [13]); 64 µg/mL in assay [4] (setting [14]); 18.7 µM in assay [5] (setting [15]); 8 µg/mL in [5] (setting [16]). Besides, at Human topoisomerase IIα, the remaining activity at 10 µM was determined as 99.2 ± 0.52%.

Regarding `COc1ccc2nccc(CCN3CCC(NCc4ccc(Br)c(F)c4)CC3)c2n1` [Compound 5], it took 7 nM to reach half-maximal inhibition on S. aureus DNA gyrase (IC50). The MIC in [1] (setting [6]) stood at 1.06 µM; in assay [1] (setting [7]), 0.5 µg/mL; in the assay on Klebsiella pneumoniae (read-out: MIC K. pneumoniae) it was 33.8 µM; in the assay on Klebsiella pneumoniae (setting [8]), 16 µg/mL; in the assay with E. coli D22 (D22, read-out: MIC E. coli D2) it was 0.131 µM; in the assay with E. coli D22 (D22, read-out: MIC E. coli D22) it was 0.062 µg/mL. In addition, the MIC in the assay with MRSA (QA-11.7) was 0.034 µM and 0.016 µg/mL; with E. coli (ATCC 25922) it was 2.11 µM and 1 µg/mL; in the assay on MRSA (QA-12.1) it was 0.065 µM and 0.031 µg/mL; in the assay with S. aureus (ATCC 29213), 0.017 µM and 0.008 µg/mL; in assay [2] (setting [9]), 0.031 µg/mL; in assay [2] (setting [10]) it was 0.065 µM. The MIC stood at 4.22 µM in assay [3] (setting [11]); 2 µg/mL in assay [3] (setting [12]); 67.6 µM in assay [4] (setting [13]); 32 µg/mL in assay [4] (setting [14]); 8.45 µM in assay [5] (setting [15]); 4 µg/mL in assay [5] (setting [16]). In addition, the remaining activity at 10 µM on Human topoisomerase IIα came to 98.46 ± 0.45%.

For the molecule `COc1ccc2nccc(CCN3CCC(NCc4cc(F)c(Cl)c(F)c4)CC3)c2n1` [Compound 7], at S. aureus DNA gyrase, it took 14 ± 2 nM to reach half-maximal inhibition (IC50). Further, the MIC stood at 1.12 µM in assay [1] (setting [6]); 0.5 µg/mL in assay [1] (setting [7]); 17.9 µM in the assay on Klebsiella pneumoniae (read-out: MIC K. pneumoniae); 8 µg/mL in the assay with Klebsiella pneumoniae (setting [8]); 0.069 µM with E. coli D22 (D22, read-out: MIC E. coli D2); 0.031 µg/mL with E. coli D22 (D22, read-out: MIC E. coli D22). In addition, the MIC in the assay on MRSA (QA-11.7) is 0.069 µM and 0.031 µg/mL; in the assay with E. coli (ATCC 25922), 1.12 µM and 0.5 µg/mL; in the assay with MRSA (QA-12.1) it was 0.069 µM and 0.031 µg/mL; in the assay with S. aureus (ATCC 29213), 0.018 µM and 0.008 µg/mL; in assay [2] (setting [9]), 0.062 µg/mL; in assay [2] (setting [10]), 0.139 µM. The MIC in assay [3] (setting [11]) came to 1.12 µM; in assay [3] (setting [12]) it was 0.5 µg/mL; in assay [4] (setting [13]), 35.8 µM; in assay [4] (setting [14]), 16 µg/mL; in [5] (setting [15]), 4.47 µM; in [5] (setting [16]), 2 µg/mL. The remaining activity at 10 µM on Human topoisomerase IIα worked out at 99.43 ± 0.57%.
